These results are taken from US20240125807A1, “METHOD FOR MEASURING RELATIVE fu RATIO BY DYNAMIC [sequence]” (Chugai Seiyaku Kabushiki Kaisha, priority 2020, published 2024).

For data set [1] the following is noted: rat and human, 24 h, 0.2 μmol/L.
The nature of data set [2]: Relative fu ratio rat/human, equilibrium dialysis serum versus serum, dynamic analysis. Particulars: Examples 4 to 13: 10% serum, analyte 0.2 μmol/L, 0.5-24 h. Background: In equilibrium dialysis free small molecules cross a membrane that holds back macromolecules.
Data set [3] is described as follows: fu by static analysis (versus buffer), rat serum (Reference Example). As to conditions: Reference Examples 4 to 13: 10% serum versus buffer, 24 h.
Data set [4] in a line: in vitro. As to conditions: rat.
Data set [5] is described as follows: in vitro. As to conditions: human, serum.
For data set [6] the following is noted: cited from earlier work.
Data set [7] can be described thus: fu ratio (serum/microsome) from fu values by static analysis (versus buffer), Reference Examples 14 to 20. The class given is in vitro ADME, human. Particulars: from fu values of Reference Examples 14 to 20 (static analysis versus buffer).
The conditions of data set [8]: serum, 24 h, 0.2 μmol/L.
Data set [9] is described as follows: fu ratio (serum/microsome) using fu value (microsome) and fu value (serum)=0.01 based on the FDA guidance, Reference Examples 21 to 27. The class given is in vitro ADME, human. As to conditions: fu value (microsome) of Reference Examples 14 to 20 and fu value (serum)=0.01 per FDA guidance (Reference Examples 21 to 27).
In data set [10] the target is T1, CYP3A4 (Homo sapiens, UniProt P08684). Briefly: Inhibition constant Ki in human hepatic microsome with midazolam as CYP3A4 probe substrate. The procedure:
For predicting the DDI risk, midazolam that is a CYP3A4 substrate was used as a probe compound to determine an inhibition constant Ki value of each compound in human hepatic microsome.
To 5 μL of a solution of midazolam dissolved therein at 50 mmol/L was added 70 μL of a 50% acetonitrile solution to obtain 75 μL in total of a solution. […] To 25 mg of commercially available β-NADPH (Wako Pure Chemical Industries, Ltd.) was added 3000 μL of a phosphate buffer at 0.1 mol/L to obtain a NADPH solution (10 mmol/L). The prepared solutions were mixed in the following order to obtain an inhibition reaction solution (100 μL in total), and the solution was reacted for 5 minutes with stirring at 37° C. where the time immediately after addition of the NADPH solution was defined as 0 minute after the start of the reaction.
The thus-obtained sample was used as a LCMS measurement solution. Two sets of the LCMS measurement solution were prepared, with one intended for quantitative determination of 1-hydroxymidazolam generated by metabolic reaction and the other intended for measurement of the actual concentration of a compound to be measured (inhibitor). Each set was used for LCMS quantitative analysis.
Therefore, the determined IC50 was directly used as Ki value.

In data set [11] the target is T1, CYP3A4. Also noted: unit not given beside the values. As to conditions: in vivo, cited from earlier work.
For data set [12] the following is noted: serum, 24 h, 0.2 μmol/L. The source holds these as a separate data set.
Data set [13] can be described thus: fu value (microsome) by static analysis (versus buffer), Reference Examples 14 to 20. The class given is in vitro ADME. Particulars: human, human hepatic microsomes 0.1 mg/mL dialysed against buffer, microsome 0.1 mg/mL.
The nature of data set [14]: Relative fu ratio (serum/microsome), human serum and human hepatic microsome, dynamic analysis. As to conditions: human serum fu corrected to 1/1, human hepatic microsome 0.1 mg/mL.
A short description of data set [15]: fu by static analysis (versus buffer), human serum (Reference Example). As to conditions: 24 h, 10% serum fu corrected to serum concentration 1/1.
Data set [16] has as its target T1, CYP3A4. Particulars: read-out: Km value; midazolam as CYP3A4 substrate, suggested in the literature; cited from earlier work.

The structures appear in SMILES notation. Where two headings read alike, the source gives them in different places.

T1 sequence (P08684 whole entry): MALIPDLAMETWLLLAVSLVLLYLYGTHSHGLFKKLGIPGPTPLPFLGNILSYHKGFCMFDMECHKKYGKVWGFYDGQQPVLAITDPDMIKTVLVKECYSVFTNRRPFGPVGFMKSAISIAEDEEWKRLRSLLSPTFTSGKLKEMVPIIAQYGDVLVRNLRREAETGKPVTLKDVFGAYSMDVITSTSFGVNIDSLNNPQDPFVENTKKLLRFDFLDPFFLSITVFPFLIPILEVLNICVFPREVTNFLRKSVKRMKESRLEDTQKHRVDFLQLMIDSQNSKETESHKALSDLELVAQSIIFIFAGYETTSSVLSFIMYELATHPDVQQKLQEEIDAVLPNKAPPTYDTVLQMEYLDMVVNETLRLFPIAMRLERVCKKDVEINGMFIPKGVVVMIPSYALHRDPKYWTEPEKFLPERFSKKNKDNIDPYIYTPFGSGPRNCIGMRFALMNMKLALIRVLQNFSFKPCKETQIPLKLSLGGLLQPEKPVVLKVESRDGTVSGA

What is called fraction unbound is the share of the substance not bound to proteins or other matrix. Turning to `CNC(=O)c1ccc(N2C(=S)N(c3cnc(C#N)c(C(F)(F)F)c3)C(=O)C23CCC3)cc1F` [Apalutamide], the entries for the “fu ratio (rat/human)” value in data set [1], in [2] and in data set [3] were 3.36, 2.50 and 2.30, respectively. Besides, the fraction unbound at 24 h, 0.2 μmol/L in data set [4] is 0.104; in [5] it was 0.03.
Broadly, the Cmax is the maximum level reached in the sampled fluid or tissue. `O=C1CCc2ccc(OCCCCN3CCN(c4cccc(Cl)c4Cl)CC3)cc2N1` [Aripiprazole]: the Cmax in [6] (Dose 15 mg) is 242 ng/mL. For the same compound, the figures for the fraction unbound in data set [4] (serum), in [5] (Human (fu value)) and in data set [5] (Human serum (serum concentration: 1/1) (fu value)) were 0.003, 0.002 and 0.0021, respectively.
With `C=C[C@@H]1C[C@]1(NC(=O)[C@@H]1C[C@@H](Oc2ncc(OC)c3ccc(Cl)cc23)CN1C(=O)[C@@H](NC(=O)OC(C)(C)C)C(C)(C)C)C(=O)NS(=O)(=O)C1CC1` [Asunaprevir], the results for the fraction unbound at 24 h, 0.2 μmol/L in [4] and in data set [5] were 0.008 and 0.005, respectively.
`COc1ccc2c(c1)[C@@H]1C[C@]1(C(=O)N1[C@@H]3CC[C@H]1CN(C)C3)Cn1c-2c(C2CCCCC2)c2ccc(C(=O)NS(=O)(=O)N(C)C)cc21` [Beclabuvir]: the fraction unbound at 24 h, 0.2 μmol/L in data set [4] (serum) turned out to be 0.008; in data set [5], 0.007.
As usually defined, the Ki is the equilibrium dissociation constant of an inhibitor or competing ligand from its target. Regarding `O=C(O)c1ccc(-n2nc(-c3ccccc3O)nc2-c2ccccc2O)cc1` [Deferasirox], the “fu ratio (serum/microsome)” value is 0.0046 in data set [7] and 0.0099 in data set [9]. Besides, the “Human (fu value)” value in data set [8] amounted to 0.005. Besides, the Ki in data set [10] is at least 49 µM. The Ki value result in data set [10] (microsomes) is on record as “maximum addition concentration”. The “AUCR (observed value)” value in data set [11] (210 mg) is recorded as 0.90. In addition, the Cmax in data set [6] (Dose 210 mg) is 40327 ng/mL. The compound also displayed a fraction unbound at 24 h, 0.2 μmol/L in [4] (serum) of 0.02.
As to `C[C@]12C=CC(=O)N[C@@H]1CC[C@@H]1[C@@H]2CC[C@]2(C)[C@@H](C(=O)Nc3cc(C(F)(F)F)ccc3C(F)(F)F)CC[C@@H]12` [Dutasteride], the fraction unbound at 24 h, 0.2 μmol/L in data set [4] (serum) came out at 0.009; in data set [5], 0.006.
Regarding `COC(=O)N[C@H](C(=O)N1CCC[C@H]1c1nc(-c2ccc3c(c2)O[C@@H](c2ccccc2)n2c-3cc3cc(-c4c[nH]c([C@@H]5CCCN5C(=O)[C@@H](NC(=O)OC)C(C)C)n4)ccc32)c[nH]1)C(C)C` [Elbasvir], in [8], the “Human (fu value)” value is given as 0.001. The “Rat (fu value)” value in data set [12] was determined as 0.001.
`C=CC(=O)N1CCC[C@@H](n2nc(-c3ccc(Oc4ccccc4)cc3)c3c(N)ncnc32)C1` [Ibrutinib]: the fraction unbound at 24 h, 0.2 μmol/L in [4] (serum) came out at 0.007; in data set [5], 0.019.
Take `CCC(C)n1ncn(-c2ccc(N3CCN(c4ccc(OCC5COC(Cn6cncn6)(c6ccc(Cl)cc6Cl)O5)cc4)CC3)cc2)c1=O` (stereo not shown) [Itraconazole]: the “AUCR (observed value)” value in data set [11] (50 mg) is 1.91; in [11] (200 mg) it was 5.05; in [11] (400 mg), 5.07. Further, the fraction unbound at 24 h, 1 μmol/L in data set [13] was determined as 0.77. Further, the Cmax in data set [6] (Dose 50 mg) is 14.11 ng/mL; in data set [6] (Dose 200 mg), 163.93 ng/mL; in data set [6] (Dose 400 mg) it was 317.52 ng/mL.
As to `CC(=O)N1CCN(c2ccc(OCC3COC(Cn4ccnc4)(c4ccc(Cl)cc4Cl)O3)cc2)CC1` (stereo not shown) [Ketoconazole], the Cmax was 4681.36 ng/mL in [6] (Dose 200 mg) and 5877.28 ng/mL in data set [6] (Dose 400 mg).
Turning to `CS(=O)(=O)CCNCc1ccc(-c2ccc3ncnc(Nc4ccc(OCc5cccc(F)c5)c(Cl)c4)c3c2)o1` [Lapatinib], in data set [13], the fraction unbound at 24 h, 1 μmol/L is 0.05.
For `O=C(NC1CCN(CCCCC2(C(=O)NCC(F)(F)F)c3ccccc3-c3ccccc32)CC1)c1ccccc1-c1ccc(C(F)(F)F)cc1` [Lomitapide], the “Human (fu value)” value in data set [8] stood at 0.002. Further, the fraction unbound at 24 h, 0.2 μmol/L in data set [4] (serum) was determined as 0.006.
Regarding `c1ccc(Cc2nn[nH]n2)c(COc2ccc(OCc3ccc4ccccc4n3)cc2)c1` [RG12525], the “fu ratio (serum/microsome)” value in data set [7] worked out at 0.0005; in data set [9] it was 0.0129. In data set [10], this compound came in with a Ki of 1.49 µM. For the same compound, the results for the “AUCR (observed value)” value in [11] (100 mg) and in [11] (600 mg) were 1.09 and 1.01, respectively. In [13], this compound returned a fraction unbound at 24 h, 1 μmol/L of 0.77. Moreover, the figures for the Cmax in [6] (Dose 100 mg) and in data set [6] (Dose 600 mg) were 1482 ng/mL and 8186 ng/mL, respectively.
With `CCCSc1nc(N[C@@H]2C[C@H]2c2ccc(F)c(F)c2)c2nnn([C@@H]3C[C@H](OCCO)[C@@H](O)[C@H]3O)c2n1` [Tikaglera], in data set [14], the “fu ratio (scrum/microsome)” value is 0.0103. Further, the “fu ratio (serum/microsome)” value is on record as 0.0065 in [7] and 0.0207 in data set [9]. Moreover, in [10] (human hepatic microsome, midazolam 0.33 μmol/L, IC50 used as Ki), the Ki value entry is recorded as “maximum addition concentration”. Besides, in data set [10] (read-out: Ki value, human hepatic microsome, midazolam 0.33 μmol/L as CYP3A4 substrate, IC50 directly used as Ki), the Ki was at least 87 µM. The “Human serum (serum concentration: 1/1) (fu value)” value in data set [15] was 0.0032. In [6] (Dose 90 mg), the Cmax is 403 ng/mL.
One may read the Km as the substrate concentration at which the rate is half of its maximum. As for `Cc1ncc2n1-c1ccc(Cl)cc1C(c1ccccc1F)=NC2` [midazolam], the Km in data set [16] is 2.06 µM.
